Laboratory results published in ChEMBL document CHEMBL4184308, “Melanogenesis inhibitory pregnane glycosides from Cynanchum atratum” (Bioorg Med Chem Lett, 2018).
pIC50: −log10 of the molar value. Activity calls are given as the source filed them. No cut-off for these calls is given here.

Test system: B16
Test: Inhibition of melanin production in alpha-MSH-stimulated mouse B16 cells incubated for 24 hrs followed by alpha-MSH stimulation for 72 hrs in presence of compound
Format: functional, cell-based

Row | SMILES | pIC50 | inhibition
1 | CO[C@H]1C[C@H](O[C@@H]2[C@H](C)O[C@@H](O[C@H]3[C@@H](OC)C[C@H](O[C@@H]4CC5=CC[C@H]6C(=O)[C@@](C)(C7=CC(=O)O[C@@H]7C)CC[C@@H]6[C@@]5(C)C[C@H]4O)O[C@@H]3C)C[C@@H]2OC)O[C@H](C)[C@H]1O | 4.48 | Dose-dependent effect
2 | CO[C@@H]1[C@@H](O)[C@H](O[C@H]2CC[C@@]3(C)C(=CC[C@H]4C(=O)O[C@@H]5CO[C@]6(C)OC(=O)/C(=C/C[C@@H]43)[C@H]56)C2)O[C@H](C)[C@H]1O | < 4.30 | –
3 | CO[C@H]1[C@@H](O)[C@H](O[C@H]2CC[C@@]3(C)C(=CC[C@H]4C(=O)O[C@@H]5CO[C@]6(C)OC=C(CC[C@@H]43)[C@H]56)C2)O[C@H](C)[C@H]1O[C@H]1C[C@H](OC)[C@H](O[C@H]2C[C@H](OC)[C@H](O)[C@@H](C)O2)[C@H](C)O1 | 5.40 | Dose-dependent effect
4 | CO[C@H]1O[C@@]2(C)OC[C@H]3OC(=O)[C@@H]4CC=C5C[C@@H](O[C@@H]6O[C@H](C)[C@@H](O)[C@H](OC)[C@H]6O)CC[C@]5(C)[C@H]4C/C=C/1[C@H]32 | 4.39 | –
5 | CO[C@H]1C[C@H](O[C@@H]2CC3=CC[C@H]4C(=O)[C@@](C)(C5=CC(=O)O[C@H]5C)CC[C@@H]4[C@@]3(C)C[C@H]2O)O[C@H](C)[C@H]1O | < 4.30 | –
6 | CO[C@H]1C[C@H](O[C@@H]2[C@H](C)O[C@@H](O[C@H]3[C@@H](OC)C[C@H](O[C@@H]4CC5=CC[C@H]6C(=O)[C@@](C)(C7=CC(=O)O[C@H]7C)CC[C@@H]6[C@@]5(C)C[C@H]4O)O[C@@H]3C)C[C@@H]2OC)O[C@H](C)[C@H]1O | 4.68 | Dose-dependent effect
7 | CO[C@H]1[C@@H](O)[C@H](O[C@H]2CC[C@@]3(C)C(=CC[C@H]4C(=O)O[C@@H]5CO[C@]6(C)OC=C(CC[C@@H]43)[C@H]56)C2)O[C@H](C)[C@H]1O[C@H]1C[C@H](OC)[C@H](O)[C@H](C)O1 | 4.72 | Dose-dependent effect

Biological target: T1, Tyrosinase (Mus musculus) (UniProt P11344)
T1 sequence (whole entry): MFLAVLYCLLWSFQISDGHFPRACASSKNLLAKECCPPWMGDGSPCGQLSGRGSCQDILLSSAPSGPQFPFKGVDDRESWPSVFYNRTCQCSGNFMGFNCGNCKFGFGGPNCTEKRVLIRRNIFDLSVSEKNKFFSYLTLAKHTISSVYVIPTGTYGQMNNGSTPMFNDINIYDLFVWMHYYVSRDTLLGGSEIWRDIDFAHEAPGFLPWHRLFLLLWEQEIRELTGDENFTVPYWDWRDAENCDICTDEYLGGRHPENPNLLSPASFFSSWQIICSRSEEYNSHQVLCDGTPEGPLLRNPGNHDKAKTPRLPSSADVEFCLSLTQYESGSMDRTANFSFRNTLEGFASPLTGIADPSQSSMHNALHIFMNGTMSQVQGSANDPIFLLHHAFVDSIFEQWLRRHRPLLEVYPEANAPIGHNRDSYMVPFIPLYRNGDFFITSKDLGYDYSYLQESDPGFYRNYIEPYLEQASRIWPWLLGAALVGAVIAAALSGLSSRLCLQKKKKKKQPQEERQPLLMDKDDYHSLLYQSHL
Test: Inhibition of mouse B16 cells derived tyrosinase at 30 uM

Row | SMILES | inhibition
8 | CO[C@H]1C[C@H](O[C@@H]2[C@H](C)O[C@@H](O[C@H]3[C@@H](OC)C[C@H](O[C@@H]4CC5=CC[C@H]6C(=O)[C@@](C)(C7=CC(=O)O[C@H]7C)CC[C@@H]6[C@@]5(C)C[C@H]4O)O[C@@H]3C)C[C@@H]2OC)O[C@H](C)[C@H]1O | inactive

Biological target: T1, Tyrosinase (Mus musculus)
Test: Inhibition of mouse tyrosinase

Row | SMILES | inhibition
9 | CC(=O)c1cc(O)ccc1O | Active
10 | CC(=O)c1c(O)cccc1O | Active
